Source: PubChem BioAssay (NCI)
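Exposure lasted 48 hours, with cells grown in 96-well plates and compounds tested at five concentrations. TGI is the concentration that stops growth completely.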

What was measured:
Assay in all cases: growth of human tumour cells (NCI), 48 h
DLD-1 colon = test system: DLD-1 colon
KM20L2 colon = test system: KM20L2 colon
CAKI-1 renal = test system: CAKI-1 renal
RXF 393 renal = test system: RXF 393 renal
TK-10 renal = test system: TK-10 renal
HCT-116 colon = test system: HCT-116 colon
HOP-92 NSCLC = test system: HOP-92 NSCLC
NCI-H460 lung = test system: NCI-H460 lung
SF-268 CNS = test system: SF-268 CNS
HT29 colon = test system: HT29 colon
786-0 renal = test system: 786-0 renal
SN12C renal = test system: SN12C renal
EKVX NSCLC = test system: EKVX NSCLC
SK-MEL-28 melanoma = test system: SK-MEL-28 melanoma
UO-31 renal = test system: UO-31 renal
HCC-2998 colon = test system: HCC-2998 colon
RXF-631 renal = test system: RXF-631 renal
UACC-257 melanoma = test system: UACC-257 melanoma
U251 CNS = test system: U251 CNS
ACHN renal = test system: ACHN renal
HCT-15 colon = test system: HCT-15 colon
SNB-78 CNS = test system: SNB-78 CNS
SW-620 colon = test system: SW-620 colon
MOLT-4 leukemia = test system: MOLT-4 leukemia
COLO 205 colon = test system: COLO 205 colon
SF-295 CNS = test system: SF-295 CNS
LOX IMVI melanoma = test system: LOX IMVI melanoma
KM12 colon = test system: KM12 colon
OVCAR-8 ovarian = test system: OVCAR-8 ovarian
OVCAR-3 ovarian = test system: OVCAR-3 ovarian
K-562 leukemia = test system: K-562 leukemia
M19-MEL melanoma = test system: M19-MEL melanoma
LXFL 529 NSCLC = test system: LXFL 529 NSCLC
HOP-62 NSCLC = test system: HOP-62 NSCLC
OVCAR-4 ovarian = test system: OVCAR-4 ovarian
NCI-H23 lung = test system: NCI-H23 lung
M14 melanoma = test system: M14 melanoma
SK-MEL-2 melanoma = test system: SK-MEL-2 melanoma
CCRF-CEM leukemia = test system: CCRF-CEM leukemia
SNB-19 CNS = test system: SNB-19 CNS
SK-MEL-5 melanoma = test system: SK-MEL-5 melanoma
SF-539 CNS = test system: SF-539 CNS
MALME-3M melanoma = test system: MALME-3M melanoma
A549 NSCLC = test system: A549 NSCLC
SNB-75 CNS = test system: SNB-75 CNS
UACC-62 melanoma = test system: UACC-62 melanoma
NCI-H226 lung = test system: NCI-H226 lung
IGROV1 ovarian = test system: IGROV1 ovarian
OVCAR-5 ovarian = test system: OVCAR-5 ovarian
DMS 273 small cell lung = test system: DMS 273 small cell lung
RPMI-8226 leukemia = test system: RPMI-8226 leukemia
DMS 114 small cell lung = test system: DMS 114 small cell lung
SR leukemia = test system: SR leukemia
SK-OV-3 ovarian = test system: SK-OV-3 ovarian
HL-60(TB) leukemia = test system: HL-60(TB) leukemia
NCI-H522 lung = test system: NCI-H522 lung

In the case of COc1cc([C@@H]2c3cc4c(cc3[C@@H](NC(=O)c3cccc([N+](=O)[O-])c3)C3COC(=O)[C@@H]32)OCO4)cc(OC)c1O (stereo partly drawn), the TGI (DLD-1 colon) is reported as > 67.9 µM, the TGI (KM20L2 colon) is reported as > 57.7 µM and the TGI (CAKI-1 renal) is reported as 4.31 µM. The TGI (RXF 393 renal) was 9.97 µM, the TGI (TK-10 renal) was 9.94 µM and the TGI (HCT-116 colon) was > 34.8 µM. The TGI (HOP-92 NSCLC) was 22.8 µM, the TGI (NCI-H460 lung) was 1.32 µM and the TGI (SF-268 CNS) was 10.7 µM. The TGI (HT29 colon) was 11.7 µM, the TGI (786-0 renal) was 0.833 µM and the TGI (SN12C renal) was 1.49 µM. For the same compound, the TGI (EKVX NSCLC) was 10.8 µM, the TGI (SK-MEL-28 melanoma) was > 43.8 µM and the TGI (UO-31 renal) was 12.2 µM. For the same compound, the TGI (HCC-2998 colon) was 3.17 µM, the TGI (RXF-631 renal) was 18.8 µM and the TGI (UACC-257 melanoma) was > 100 µM. The TGI (U251 CNS) was 1.26 µM, the TGI (ACHN renal) was 1.62 µM and the TGI (HCT-15 colon) was 4.31 µM. For the same compound, the TGI (SNB-78 CNS) was > 100 µM, the TGI (SW-620 colon) was 24.3 µM and the TGI (MOLT-4 leukemia) was > 100 µM. For the same compound, the TGI (COLO 205 colon) was > 100 µM, the TGI (SF-295 CNS) was 3.99 µM and the TGI (LOX IMVI melanoma) was 9.41 µM. The TGI (KM12 colon) was 10.8 µM, the TGI (OVCAR-8 ovarian) was 7.06 µM and the TGI (OVCAR-3 ovarian) was 27.9 µM. For the same compound, the TGI (K-562 leukemia) was > 100 µM, the TGI (M19-MEL melanoma) was > 100 µM and the TGI (LXFL 529 NSCLC) was > 100 µM. The TGI (HOP-62 NSCLC) was 0.121 µM, the TGI (OVCAR-4 ovarian) was > 89.5 µM and the TGI (NCI-H23 lung) was 1.11 µM. The TGI (M14 melanoma) was > 19.8 µM, the TGI (SK-MEL-2 melanoma) was 7.23 µM and the TGI (CCRF-CEM leukemia) was > 100 µM. It also gave a TGI (SNB-19 CNS) of 14.1 µM, a TGI (SK-MEL-5 melanoma) of 3.65 µM and a TGI (SF-539 CNS) of 1.33 µM. The TGI (MALME-3M melanoma) was 4.77 µM, the TGI (A549 NSCLC) was 1.72 µM and the TGI (SNB-75 CNS) was 9.55 µM. For the same compound, the TGI (UACC-62 melanoma) was 7.54 µM, the TGI (NCI-H226 lung) was 1.02 µM and the TGI (IGROV1 ovarian) was > 37.4 µM. For the same compound, the TGI (OVCAR-5 ovarian) was 8.54 µM, the TGI (DMS 273 small cell lung) was > 100 µM and the TGI (RPMI-8226 leukemia) was > 22.1 µM.

With Cc1cccc2c3ccc4c(c3n(C)c12)C(=O)C=CC4=O the TGI (DLD-1 colon) was > 100 µM, the TGI (CAKI-1 renal) was > 100 µM and the TGI (TK-10 renal) was > 100 µM. For the same compound, the TGI (HCT-116 colon) was > 100 µM, the TGI (HOP-92 NSCLC) was > 100 µM and the TGI (SF-268 CNS) was > 100 µM. The TGI (DMS 114 small cell lung) was > 100 µM, the TGI (HT29 colon) was > 100 µM and the TGI (786-0 renal) was > 100 µM. For the same compound, the TGI (SN12C renal) was > 100 µM, the TGI (EKVX NSCLC) was > 100 µM and the TGI (SK-MEL-28 melanoma) was > 100 µM. For the same compound, the TGI (UO-31 renal) was > 100 µM, the TGI (SR leukemia) was > 100 µM and the TGI (HCC-2998 colon) was > 100 µM. For the same compound, the TGI (RXF-631 renal) was > 100 µM, the TGI (UACC-257 melanoma) was > 100 µM and the TGI (SNB-78 CNS) was > 100 µM. The TGI (SW-620 colon) was > 100 µM, the TGI (MOLT-4 leukemia) was > 100 µM and the TGI (COLO 205 colon) was > 100 µM. The TGI (SF-295 CNS) was > 100 µM, the TGI (KM12 colon) was > 100 µM and the TGI (OVCAR-8 ovarian) was > 100 µM. The TGI (SK-OV-3 ovarian) was > 100 µM, the TGI (OVCAR-3 ovarian) was > 100 µM and the TGI (K-562 leukemia) was > 100 µM. The TGI (M19-MEL melanoma) was > 100 µM, the TGI (LXFL 529 NSCLC) was > 100 µM and the TGI (HOP-62 NSCLC) was > 100 µM. The TGI (OVCAR-4 ovarian) was > 100 µM, the TGI (NCI-H23 lung) was 57.8 µM and the TGI (M14 melanoma) was > 100 µM. For the same compound, the TGI (SK-MEL-2 melanoma) was > 100 µM, the TGI (HL-60(TB) leukemia) was 41.9 µM and the TGI (CCRF-CEM leukemia) was 61.2 µM. The TGI (SNB-19 CNS) was > 100 µM, the TGI (SF-539 CNS) was > 100 µM and the TGI (MALME-3M melanoma) was > 100 µM. For the same compound, the TGI (A549 NSCLC) was > 100 µM, the TGI (SNB-75 CNS) was > 100 µM and the TGI (UACC-62 melanoma) was > 100 µM. The TGI (NCI-H226 lung) was > 100 µM, the TGI (IGROV1 ovarian) was > 100 µM and the TGI (DMS 273 small cell lung) was > 100 µM. For the same compound, the TGI (RPMI-8226 leukemia) was > 100 µM and the TGI (NCI-H522 lung) was > 100 µM.
